Experimental data reported in patent publication US10327423B2, “Antimicrobial compounds and compositions, and uses thereof” (Akeso Biomedical, Inc., priority 2014, dated 2019).

What was measured:
[1] = tested on: mixed population of clinical isolates (PAO Mixed); assay: Growth (OD600) in LB with Amikacin, tolerance to antibiotic; assay type: cell-based, Pseudomonas aeruginosa; details: 34, 100, 200 and 340 μM of FeQ or FePhe; Amikacin 10 µg/ml; 17.5 hours at 37° C.
Description: (§1) To investigate effects upon antibiotic resistance, a laboratory strain of Psuedomonas aeruginosa (PAO1N) and a mixed population of clinical isolates (PAO Mixed) were incubated in Luria-Bertani (LB) media alone, or with different concentrations (34 μM, 100 μM, 200 μM and 340 μM) of FeQ or FePhe.
(§2) Each of the different media, bar one control, contained 10 µg/ml of the aminoglycoside antibiotic Amikacin.
(§3) 10 μl of the bacterial strains were added into each well of a 96-well micro-titer plate, before 290 μl of the relevant media was added to wells. Each different condition was repeated in sextuplicate.
(§4) The plate was incubated at 37° C. within a micro-titer plate reader for 17.5 hours, with the OD600 read every 30 minutes.

[2] = tested on: Psuedomonas aeruginosa (PAO1N); assay: as above; assay type: cell-based, Pseudomonas aeruginosa; details: 34, 100, 200 and 340 μM of FeQ or FePhe; Amikacin 10 µg/ml; 17.5 hours at 37° C.
Description: as §1, §2, §3, §4

[3] = tested on: Staphylococcus epidermidis F1513; assay: Biofilm formation on plastic coated UV beads; assay type: cell-based; details: different concentrations of Fe-QA; T=24 h
Description: (§5) Bacteria (Enterococcus faecalis NCTC 12697, Staphylococcus epidermidis F1513 and Staphylococcus aureus ATCC 25923) were grown on Brain heart infusion (BHI) passaged to new medium either containing Fe-QA or alone. Growth suspensions were prepared at 0.0001 OD/ml and then allowed to grow at 37° C. under normal atmospheric conditions for 24 h in BHI with plastic coated UV beads (Lascells). […], 10 μl suspension was serially diluted 10 fold to 10-3, 10-4, 10-5, 10-6, 10-7, 10-8. For each dilution, 10 μl was spotted on BHI agar plates and colonies counted after 24 h. The beads were also removed washed in PBS before adding to 1 ml PBS. After vortex mixing, 10 μl of the cell suspension was serially diluted as above and cell counts carried out.
The effect of Fe-QA on biofilm formation by S. epidermidis F1513 was tested as described in the materials and methods of Example 1.

[4] = tested on: Uropathogenic E. coli UPEC-536; assay: Planktonic growth rate in RPMI-1640; assay type: cell-based, Escherichia coli; details: Fe-QA 100 μM, 24 hours
Description: The growth rate of Uropathogenic E. coli UPEC-536 in RPMI-1640 media over a period of 24 hours was compared to the growth rate of UPEC in RPMI-1640 media, but in the presence of 100 μM Fe-QA. The growth rate of Pseudomonas aeruginosa in RPMI-1640 media was also compared to the growth rate of Pseudomonas aeruginosa in RPMI-1640 media, but in the presence of 100 μM Fe-QA.

H. pylori strain 17875 = assay: Binding of I-125 labelled Le^b to H. pylori (bound/free); set-up: species or system Helicobacter pylori; details: increasing Fe-QA concentration; pH 7.4
Description: Binding of Le^b to H. pylori strain 17875 at pH 7.4 was assayed by labeling Le^b with radioactive iodine (1-125), mixing the radioactive antigen with H. pylori bacteria, pelletizing the bacteria using a centrifuge, and measuring the radioactivity in the pellet and in the supernatant. Any Le^b that is bound to the bacteria is quantified by the measurement of radioactivity in the pellet. The ratio of the radioactivity in the pellet to the supernatant therefore corresponds to the ratio of Le^b bound by the bacteria to that which remains unbound, expressed as bound/free.

[5] = tested on: Enterococcus faecalis NCTC 12697; assay: Biofilm formation on plastic coated UV beads; assay type: cell-based; details: different concentrations of Fe-QA; T=24 h
Description: as §5

[6] = Growth performance of broilers challenged with Campylobacter dirty litter at day 20; assay type: in vivo, chicken (Ross 308 male broilers); details: treatment groups 3, 5, 6, 7 (FeQ) and 8 (FeTyr)
Description: A study was performed to evaluate growth promotion and reduction of Campylobacter carriage using FeQ and FeTyr in Ross 308 male broilers with 7 treatment groups. Each treatment group comprised four replicates of 10 birds per pen (40 birds/treatment group and 4 pens of 10 birds/treatment group), and there were 2 control groups and 5 test groups. All the test groups and one of the control groups were exposed at day 20 of the trial to dirty litter, which tested positive for Campylobacter. This method was used to provide a more natural method to Campylobacter challenge the birds. Thus there was a positive control where one treatment group was challenged with Campylobacter and one negative control group where the birds were not challenged, and five treatment groups that were all challenged with Campylobacter. The total number of birds used in the 7 treatment groups was 280. Treatment group 1 was a negative control where birds just received the commercial feed, and were not challenged with dirty litter containing Campylobacter. Treatment group 2 was the positive control where the birds received the commercial feed, and were challenged with dirty litter containing Campylobacter at day 20. Treatment group 3 received 0.22 g/L of FeQ in their drinking water and 0.22 g/Kg FeQ in their feed during the entire trial, and was challenged with dirty litter containing Campylobacter at day 20. Treatment group 5 received 0.22 g/L of FeQ in their drinking water during the entire trial, and was challenged with dirty litter containing Campylobacter at day 20. Treatment group 6 received 0.22 g/kg FeQ in their feed during the entire trial, and was challenged with dirty litter containing Campylobacter at day 20. Treatment group 7 received 0.022 g/L FeQ in their drinking water during the entire trial, and was challenged with dirty litter containing Campylobacter at day 20. Treatment group 8 received 0.02 g/L FeTyr in their drinking water during the entire trial, and was challenged with dirty litter containing Campylobacter at day 20. The FeTyr was pre-dissolved in DMSO, and diluted to provide a solution of 0.02 g/L of FeTyr in water. (An additional treatment group 4 was terminated due to solubility issues.) […]
The feeding program is show in Table 4. […] All birds were weighed individually and feed weigh backs recorded per pen at day 0, 11, 21, 24 and 42 days.
In order to minimize risk of cross-contamination, standard industry biosecurity measures were used including: disinfecting boots, changing overshoes and gloves between pens/treatments, entering Campylobacter negative pens before entering Campylobacter positive pens, and leaving adjacent pens empty. Daily health, culls, and mortality were recorded. All bird weights were recorded at 0, 11, 21, 24, 33 and 42 days. […]

O=C1[O][Fe]23([O]C(=O)[C@]4(C[C@@H](O)[C@H](O)[C@H](O)C4)[O]2)([O]C(=O)[C@]2(C[C@@H](O)[C@H](O)[C@H](O)C2)[O]3)[O][C@@]12C[C@@H](O)[C@H](O)[C@H](O)C2 [FeQ, a complex of quinic acid with Fe III]
tolerance to the aminoglycoside Amikacin (OD600 growth) [1]: reducing tolerance
tolerance to the aminoglycoside Amikacin (OD600 growth) [2]: reducing tolerance
biofilm formation on plastic coated UV beads [3]: inhibited
planktonic growth rate [4]: does not inhibit the growth
competitive inhibition of Le^b binding to H. pylori (bound/free Le^b) (H. pylori strain 17875): increasingly inhibits binding
biofilm formation on plastic coated UV beads [5]: inhibited
ABW at day 42 versus positive control (challenged, untreated) [6]: performed better than the positive control
MFCR at day 42 versus positive control (challenged, untreated) [6]: performed better than the positive control
